# pIC50: −log10 of the molar value.
# Target: CDK2/Cyclin E1 (Homo sapiens, UniProt P24941)
# Experiment: CDK2/Cyclin E1 Caliper LabChip EZ Reader mobility shift assay
# Format: biochemical
# Design: purchased Eurofins 14-475
# Conditions: read-out: Caliper Assay (CDK2/CCNE1): IC50
# Method in brief: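 Substrate-to-product conversion of fluorescent peptide (1.5 μM final) read by capillary electrophoresis after 100 min reaction, EDTA-quenched. Enzyme (2.5 nM final) and ATP (100 μM final) were preincubated 30 min with inhibitor dilutions first. % activity vs concentration fitted four-parameter for IC50.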
row,pIC50,Compound
1,7.00 to 8.00,CNC(=O)[C@@H](NC(=O)[C@@H]1CN(C(=O)c2cnn(Cc3ccc(F)cc3)c2)CC12CN(C(=O)[C@H]1CC1(C)C)C2)[C@@H](C)OCc1ccc(F)cc1 [I-136A]
2,7.00 to 8.00,CNC(=O)[C@@H](NC(=O)[C@@H]1CN(C(=O)c2cnn(Cc3ccccc3)c2)CC12CN(C(=O)[C@H]1CC1(C)C)C2)[C@@H](C)OCC1CCCC1 [I-110A]
3,6.00 to 7.00,CNC(=O)[C@@H](NC(=O)[C@@H]1CN(C(=O)c2cnn(Cc3ccccc3)c2)CC12CN(C(=O)N(C)C1CC1)C2)[C@@H](C)OCC1CCCCC1 [I-295]
4,6.00 to 7.00,CC1(C)C[C@@H]1C(=O)N1CC2(CN(C(=O)c3cnn(Cc4ccccc4)c3)C[C@H]2C(=O)N2CCC[C@H](C(=O)NC3CCCCC3)C2)C1 [I-180]
5,< 5.00,CO[C@H]1COCC[C@@H]1NC(=O)[C@@H]1CN(C(=O)c2cnn(Cc3ccccc3)c2)CC12CN(C(=O)[C@H]1CC1(C)C)C2 [I-148A]
6,6.00 to 7.00,"CNC(=O)[C@@H](NC(=O)[C@@H]1CN(C(=O)c2cnn(Cc3ccccc3)c2)CC12CN(C(=O)C1(C)CC1)C2)[C@@H](C)OCc1ccccc1 [I-67A, (S)-6-(1-benzyl-1H-pyrazole-4-carbonyl)-N-((2S,3R)-3-(benzyloxy)-1-(methylamino)-1-oxobutan-2-yl)-2-(1-methylcyclopropane-1-carbonyl)-2,6-diazaspiro[3.4]octane-8-carboxamide]"
7,7.00 to 8.00,C[C@@H](OCc1ccccc1)[C@H](NC(=O)[C@@H]1CN(C(=O)c2cncs2)CC12CN(C(=O)[C@H]1CC1(C)C)C2)C(=O)N(C)C [I-416]
8,6.00 to 7.00,CNC(=O)[C@@H](NC(=O)[C@@H]1CN(C(=O)c2cnc(Cl)s2)CC12CN(C(=O)[C@H]1CC1(C)C)C2)[C@@H](C)OCC1CCCCC1 [I-189A]
9,< 5.00,CC1(C)C[C@@H]1C(=O)N1CC2(CN(C(=O)c3cnn(Cc4ccccc4)c3)C[C@H]2C(=O)NC[C@H]2CC[C@@H](C)CC2)C1 [I-388]
10,6.00 to 7.00,CNC(=O)[C@@H](NC(=O)[C@@H]1CN(C(=O)c2cnn(Cc3ccccc3)c2)CC12CN(C(=O)[C@H]1CC1(C)C)C2)[C@@H](C)OCc1ccccc1O [I-251]
11,< 5.00,CNC(=O)[C@@H](NC(=O)[C@@H]1CN(Cc2cn[nH]c2)CC12CN(C(=O)[C@H]1CC1(C)C)C2)[C@@H](C)OCc1ccccc1 [I-50A]
12,5.00 to 6.00,CC1(C)C[C@@H]1C(=O)N1CC2(CN(C(=O)c3cnn(Cc4ccccc4)c3)C[C@H]2C(=O)NCc2ccc(C(F)(F)F)nn2)C1 [I-392]
13,≥ 8.00,C[C@@H](OCC1CCC(F)(F)CC1)[C@H](NC(=O)C1CN(C(=O)c2cncs2)CC12CN(C(=O)[C@H]1CC1(C)C)C2)C(=O)N1CCC(OC(F)(F)F)CC1 (stereo partly shown) [I-394]
14,< 5.00,CNC(=O)[C@@H](NC(=O)[C@H]1CN(C(=O)c2cccnc2)CC12CN(C(=O)[C@H]1CC1(C)C)C2)[C@@H](C)OCc1ccccc1 [I-42B]
15,< 5.00,COCCNC(=O)[C@@H]1CN(C(=O)c2cnn(Cc3ccccc3)c2)CC12CN(C(=O)[C@H]1CC1(C)C)C2 [I-122A]
16,6.00 to 7.00,C[C@@H](OCC1(C(F)(F)F)CC1)[C@H](NC(=O)[C@H]1CN(C(=O)c2cncs2)CC12CN(C(=O)[C@H]1CC1(C)C)C2)C(=O)N1CCC(F)(F)CC1 [I-291]
17,≥ 8.00,CC(O[C@H](C)[C@H](NC(=O)[C@@H]1CN(C(=O)c2cncs2)CC12CN(C(=O)[C@H]1CC1(C)C)C2)C(=O)N1CCC(F)(F)CC1)C1CCC(F)(F)CC1 (stereo partly shown) [I-361]
18,≥ 8.00,C[C@@H](OCC1CCCCC1)[C@H](NC(=O)[C@@H]1CN(C(=O)c2ccns2)CC12CN(C(=O)[C@H]1CC1(C)C)C2)C(=O)N1CCCCC1 [I-217]
19,≥ 8.00,COC[C@H]1CCCN(C(=O)[C@@H](NC(=O)[C@@H]2CN(C(=O)c3cncs3)CC23CN(C(=O)[C@H]2CC2(C)C)C3)[C@@H](C)OCc2ccc(C(F)(F)F)cc2)C1 [I-319]
20,5.00 to 6.00,CNC(=O)[C@@H](NC(=O)[C@H]1CN(C(=O)c2cnn(Cc3ccccc3)c2)CC12CN(C(=O)CC1CC1)C2)[C@@H](C)OCC1CCCCC1 [I-56B]
21,7.00 to 8.00,CNC(=O)[C@@H](NC(=O)[C@@H]1CN(C(=O)c2cncs2)CC12CN(C(=O)[C@H]1CC1(C)C)C2)[C@@H](C)OCC12CCC(CC1)OC2 [I-342]
22,< 5.00,CC1(C)C[C@@H]1C(=O)N1CC2(CN(C(=O)c3cnn(Cc4ccccc4)c3)C[C@H]2C(=O)NCC2CCCCO2)C1 (stereo partly shown) [I-221]
23,< 5.00,Cc1ccc(CNC(=O)[C@@H]2CN(C(=O)c3cnn(Cc4ccncc4)c3)CC23CN(C(=O)[C@H]2CC2(C)C)C3)nn1 [I-418]
24,< 5.00,CO[C@H]1COCC[C@@H]1NC(=O)[C@H]1CN(C(=O)c2cnn(Cc3ccccc3)c2)CC12CN(C(=O)[C@H]1CC1(C)C)C2 [I-131B]
25,< 5.00,CNC(=O)[C@@H](NC(=O)[C@H]1CN(C(=O)c2sc(C)nc2C)CC12CN(C(=O)[C@H]1CC1(C)C)C2)[C@@H](C)OCC1CCCCC1 [I-213B]
26,5.00 to 6.00,CC1(C)C[C@@H]1C(=O)N1CC2(CN(C(=O)c3cnn(Cc4ccccc4)c3)C[C@@H]2C(=O)N[C@H]2CCc3cc(Cl)ccc32)C1 [I-133B]

row,pIC50,Compound
1,< 5.00,CNC(=O)[C@@H](NC(=O)[C@H]1CN(C(=O)c2cnn(CC(F)(F)F)c2)CC12CN(C(=O)CC1CC1)C2)[C@@H](C)OCc1ccccc1 [I-43B]
2,5.00 to 6.00,CC1(C)C[C@@H]1C(=O)N1CC2(CN(C(=O)c3cnn(Cc4ccccc4)c3)C[C@@H]2C(=O)Nc2cccc(-c3ccccc3)c2)C1 [I-63B]
3,5.00 to 6.00,C[C@@H](OCC1CCCCC1)[C@H](NC(=O)[C@H]1CN(C(=O)c2cnn(Cc3ccccc3)c2)CC12CN(C(=O)[C@H]1CC1(C)C)C2)C(=O)N1CC(C)(C)C1 [I-153B]
4,7.00 to 8.00,CNC(=O)[C@@H](NC(=O)[C@@H]1CN(C(=O)c2cncs2)CC12CN(C(=O)[C@H]1CC1(C)C)C2)[C@@H](C)OCC1CCCCC1 [I-129A]
5,< 5.00,CNC(=O)[C@@H](NC(=O)[C@@H]1CN(S(=O)(=O)c2cnn(Cc3ccccc3)c2)CC12CN(C(=O)[C@H]1CC1(C)C)C2)[C@@H](C)OCc1ccccc1 [I-79A]
6,< 5.00,CC1(C)C[C@@H]1C(=O)N1CC2(CN(C(=O)c3cnn(Cc4ccccc4)c3)C[C@@H]2C(=O)N[C@@H]2CC[C@@H]2O)C1 [I-201A]
7,< 5.00,CNC(=O)[C@@H](NC(=O)[C@H]1CN(C(=O)C2CCOCC2)CC12CN(C(=O)[C@H]1CC1(C)C)C2)[C@@H](C)OCc1ccccc1 [I-38B]
8,< 5.00,CC1(C)C[C@@H]1C(=O)N1CC2(CN(C(=O)c3cnn(Cc4ccccc4)c3)C[C@H]2C(=O)NCc2ccc(O)nn2)C1 [I-400]
9,< 5.00,CNC(=O)[C@@H](NC(=O)[C@H]1CN(C(=O)c2cn[nH]c2)CC12CN(C(=O)CC1CC1)C2)[C@@H](C)OCc1ccccc1 [I-41B]
10,5.00 to 6.00,CCC(CC)C(=O)N1CC2(CN(C(=O)c3cnn(Cc4ccccc4)c3)C[C@H]2C(=O)N[C@H](C(=O)NC)[C@@H](C)OCc2ccccc2)C1 [I-74A]
11,5.00 to 6.00,CC1(C)C[C@@H]1C(=O)N1CC2(CN(C(=O)c3cnn(Cc4ccccc4)c3)C[C@@H]2C(=O)Nc2ccc(Cc3ccccc3)nc2)C1 [I-168]
12,< 5.00,COC(=O)[C@@H](CO)NC(=O)[C@@H]1CN(C(=O)c2cnn(Cc3ccccc3)c2)CC12CN(C(=O)[C@H]1CC1(C)C)C2 [I-187A]
13,≥ 8.00,C[C@@H](OCC1CCC(F)(F)CC1)[C@H](NC(=O)[C@@H]1CN(C(=O)c2cnn(Cc3ccc(F)cc3)c2)CC12CN(C(=O)[C@H]1CC1(C)C)C2)C(=O)N1CCC(F)(F)CC1 [I-164A]
14,≥ 8.00,COC[C@H]1CCCN(C(=O)[C@@H](NC(=O)C2CN(C(=O)c3cncs3)CC23CN(C(=O)[C@H]2CC2(C)C)C3)[C@@H](C)OCC2CCCCC2)C1 (stereo partly shown) [I-196 mixture]
15,< 5.00,COc1cccc(CNC(=O)[C@@H]2CN(C(=O)c3cnn(Cc4ccccc4)c3)CC23CN(C(=O)[C@H]2CC2(C)C)C3)n1 [I-126A]
16,7.00 to 8.00,C[C@@H](OCC1CCC(F)(F)CC1)[C@H](NC(=O)[C@H]1CN(C(=O)c2cnn(Cc3ccc(F)cc3)c2)CC12CN(C(=O)[C@H]1CC1(C)C)C2)C(=O)N1CCC(F)(F)CC1 [I-164B]
17,7.00 to 8.00,CNC(=O)[C@@H](NC(=O)[C@@H]1CN(C(=O)c2sc(C)nc2C)CC12CN(C(=O)[C@H]1CC1(C)C)C2)[C@@H](C)OCC1CCCCC1 [I-213A]
18,≥ 8.00,CNC(=O)[C@@H](NC(=O)[C@@H]1CN(C(=O)c2cnn(Cc3ccccc3)c2)CC12CN(C(=O)[C@H]1CC1(C)C)C2)[C@@H](C)OCc1ccc(Br)cc1 [I-263]
19,< 5.00,CNC(=O)[C@@H](NC(=O)[C@@H]1CN(C(=O)Cc2cn[nH]c2)CC12CN(C(=O)[C@H]1CC1(C)C)C2)[C@@H](C)OCc1ccccc1 [I-358]
20,7.00 to 8.00,"CNC(=O)C(NC(=O)[C@@H]1CN(C(=O)c2cncs2)CC12CN(C(=O)C(C)(C)C1CC1)C2)c1cccc(C2CCCCC2)n1 (stereo partly drawn) [I-410, (8S)—N-(1-(6-cyclohexylpyridin-2-yl)-2-(methylamino)-2-oxoethyl)-2-(2-cyclopropyl-2-methylpropanoyl)-6-(thiazole-5-carbonyl)-2,6-diazaspiro[3.4]octane-8-carboxamide]"
21,7.00 to 8.00,C[C@@H](OCC1CCCCC1)[C@H](NC(=O)[C@@H]1CN(C(=O)c2cnn(CC(F)(F)F)c2)CC12CN(C(=O)[C@H]1CC1(C)C)C2)C(=O)N1CCCCC1 [I-132]
22,6.00 to 7.00,CC1(C)C[C@@H]1C(=O)N1CC2(CN(C(=O)c3cnn(Cc4ccccc4)c3)C[C@H]2C(=O)N2CC[C@@H](OCC3CCCCC3)C2)C1 [I-235]
23,7.00 to 8.00,C[C@@H](OCC1CC(F)(F)C1)[C@@H](CO)NC(=O)[C@@H]1CN(C(=O)c2cncs2)CC12CN(C(=O)[C@H]1CC1(C)C)C2 [I-412]
24,6.00 to 7.00,CNC(=O)[C@@H](NC(=O)[C@H]1CN(C(=O)c2cnn(Cc3ccccc3)c2)CC12CN(C(=O)C(C)(C)C)C2)[C@@H](C)OCC1CCCCC1 [I-174B]
25,7.00 to 8.00,C[C@@H](OCC1(C(F)(F)F)CC1)[C@H](NC(=O)[C@H]1CN(C(=O)c2cncs2)CC12CN(C(=O)[C@H]1CC1(C)C)C2)C(=O)N1CCCCC1 [I-292]

row,Compound,pIC50
1,C[C@@H](OCC1CCC(F)(F)CC1)[C@H](NC(=O)[C@@H]1CN(C(=O)c2cncs2)CC12CN(C(=O)[C@H]1CC1(C)C)C2)C(=O)N1C2CCC1COC2 [I-468],≥ 8.00

# Source: patent US20240174680A1, “CDK2 INHIBITORS AND METHODS OF USING THE SAME” (Cedilla Therapeutics, Inc., priority 2021, published 2024)
